In PubChem BioAssay AID1918937 (Molecular Pharmacology Branch, DTP, NCI, 2023):

Tested on: 521955-158-R2-J5-PDC complex spheroid viability
Experiment: Anticancer human tumor 521955-158-R2-J5-PDC patient-derived pancreatic carcinoma cell line growth inhibition
Settings: for IC50: curve of first compound; for viability, T/C: stronger effect = lower value
Method in brief: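 Drug combinations with the LSD1 inhibitor iadademstat tested on tumor cells co-cultured as spheroids with endothelial cells and mesenchymal stem cells. Concentrations descended in half-log increments from clinical Cmax or 10 microM.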

[1] = second compound 0.1 µM, first compound 0.00316 µM
[2] = second compound 0.1 µM, first compound 0.01 µM
[3] = second compound 0.1 µM, first compound 0.0316 µM
[4] = second compound 0.1 µM, first compound 0.1 µM
[5] = second compound 0.316 µM, first compound 0.00316 µM
[6] = second compound 0.316 µM, first compound 0.01 µM
[7] = second compound 0.316 µM, first compound 0.0316 µM
[8] = second compound 0.316 µM, first compound 0.1 µM
[9] = second compound 1 µM, first compound 0.00316 µM
[10] = second compound 1 µM, first compound 0.01 µM
[11] = second compound 1 µM, first compound 0.0316 µM
[12] = second compound 1 µM, first compound 0.1 µM
[13] = second compound 3.16 µM, first compound 0.00316 µM
[14] = second compound 3.16 µM, first compound 0.01 µM
[15] = second compound 3.16 µM, first compound 0.0316 µM
[16] = second compound 3.16 µM, first compound 0.1 µM
[17] = second compound 10 µM, first compound 0.00316 µM
[18] = second compound 10 µM, first compound 0.01 µM
[19] = second compound 10 µM, first compound 0.0316 µM
[20] = second compound 10 µM, first compound 0.1 µM
[21] = second compound 0.1 µM, first compound 0.00949 µM
[22] = second compound 0.1 µM, first compound 0.03 µM
[23] = second compound 0.1 µM, first compound 0.0949 µM
[24] = second compound 0.1 µM, first compound 0.3 µM
[25] = second compound 0.1 µM, first compound 0.949 µM
[26] = second compound 0.1 µM, first compound 3 µM
[27] = second compound 0.316 µM, first compound 0.00949 µM
[28] = second compound 0.316 µM, first compound 0.03 µM
[29] = second compound 0.316 µM, first compound 0.0949 µM
[30] = second compound 0.316 µM, first compound 0.3 µM
[31] = second compound 0.316 µM, first compound 0.949 µM
[32] = second compound 0.316 µM, first compound 3 µM
[33] = second compound 1 µM, first compound 0.00949 µM
[34] = second compound 1 µM, first compound 0.03 µM
[35] = second compound 1 µM, first compound 0.0949 µM
[36] = second compound 1 µM, first compound 0.3 µM
[37] = second compound 1 µM, first compound 0.949 µM
[38] = second compound 1 µM, first compound 3 µM
[39] = second compound 3.16 µM, first compound 0.00949 µM
[40] = second compound 3.16 µM, first compound 0.03 µM
[41] = second compound 3.16 µM, first compound 0.0949 µM
[42] = second compound 3.16 µM, first compound 0.3 µM
[43] = second compound 3.16 µM, first compound 0.949 µM
[44] = second compound 3.16 µM, first compound 3 µM
[45] = second compound 10 µM, first compound 0.00949 µM
[46] = second compound 10 µM, first compound 0.03 µM
[47] = second compound 10 µM, first compound 0.0949 µM
[48] = second compound 10 µM, first compound 0.3 µM
[49] = second compound 10 µM, first compound 0.949 µM
[50] = second compound 10 µM, first compound 3 µM
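Also: spheroids exposed to agents for seven days.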
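For viability, T/C in this document: percent of DMSO vehicle control luminescence viability.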

For `COc1cc(Nc2ncc3c(n2)-c2ccc(Cl)cc2C(c2c(F)cccc2OC)=NC3)ccc1C(=O)O` + NC1CC1c1ccc(-c2cccc(O)c2)cc1, the IC50 (second compound 0.1 µM) was > 1 µM, the IC50 (second compound 0.316 µM) was > 1 µM and the IC50 (second compound 1 µM) was > 1 µM. The IC50 (second compound 3.16 µM) was > 1 µM, the IC50 (second compound 10 µM) was > 1 µM and the viability, T/C [1] was 67.5%. It also gave a viability, T/C [2] of 73.7%, a viability, T/C [3] of 69.4% and a viability, T/C [4] of 67.2%. For the same compound, the viability, T/C (second compound 0.1 µM, first compound 0.316 µM) was 66.2%, the viability, T/C (second compound 0.1 µM, first compound 1 µM) was 61.2% and the viability, T/C [5] was 65.9%. For the same compound, the viability, T/C [6] was 78.9%, the viability, T/C [7] was 62.1% and the viability, T/C [8] was 72.1%. For the same compound, the viability, T/C (second compound 0.316 µM, first compound 0.316 µM) was 81.7%, the viability, T/C (second compound 0.316 µM, first compound 1 µM) was 59.3% and the viability, T/C [9] was 75.1%. The viability, T/C [10] was 71.4%, the viability, T/C [11] was 65.6% and the viability, T/C [12] was 82.5%. The viability, T/C (second compound 1 µM, first compound 0.316 µM) was 70.8%, the viability, T/C (second compound 1 µM, first compound 1 µM) was 71.7% and the viability, T/C [13] was 66.4%. It also gave a viability, T/C [14] of 72%, a viability, T/C [15] of 81.8% and a viability, T/C [16] of 72.2%. It also gave a viability, T/C (second compound 3.16 µM, first compound 0.316 µM) of 75.4%, a viability, T/C (second compound 3.16 µM, first compound 1 µM) of 66% and a viability, T/C [17] of 69.5%. The viability, T/C [18] was 69.5%, the viability, T/C [19] was 67.6% and the viability, T/C [20] was 63.1%. For the same compound, the viability, T/C (second compound 10 µM, first compound 0.316 µM) was 57.5% and the viability, T/C (second compound 10 µM, first compound 1 µM) was 71.6%.

For `Cn1ncnc1C1c2n[nH]c(=O)c3cc(F)cc(c23)NC1c1ccc(F)cc1` (stereo not given) + NC1CC1c1ccc(-c2cccc(O)c2)cc1, the IC50 (second compound 0.1 µM) was > 0.1 µM, the IC50 (second compound 0.316 µM) was > 0.1 µM and the IC50 (second compound 1 µM) was > 0.1 µM. For the same compound, the IC50 (second compound 3.16 µM) was > 0.1 µM, the IC50 (second compound 10 µM) was > 0.1 µM and the viability, T/C (second compound 0.1 µM, first compound 0.000316 µM) was 91.4%. The viability, T/C (second compound 0.1 µM, first compound 0.001 µM) was 89.3%, the viability, T/C [1] was 92.2% and the viability, T/C [2] was 80.4%. The viability, T/C [3] was 77.3%, the viability, T/C [4] was 76.2% and the viability, T/C (second compound 0.316 µM, first compound 0.000316 µM) was 91.5%. For the same compound, the viability, T/C (second compound 0.316 µM, first compound 0.001 µM) was 100%, the viability, T/C [5] was 92.9% and the viability, T/C [6] was 88.8%. For the same compound, the viability, T/C [7] was 83%, the viability, T/C [8] was 78.9% and the viability, T/C (second compound 1 µM, first compound 0.000316 µM) was 82%. It also gave a viability, T/C (second compound 1 µM, first compound 0.001 µM) of 83.8%, a viability, T/C [9] of 93.1% and a viability, T/C [10] of 91.8%. The viability, T/C [11] was 94.9%, the viability, T/C [12] was 81.1% and the viability, T/C (second compound 3.16 µM, first compound 0.000316 µM) was 94.9%. It also gave a viability, T/C (second compound 3.16 µM, first compound 0.001 µM) of 103%, a viability, T/C [13] of 101% and a viability, T/C [14] of 95%. For the same compound, the viability, T/C [15] was 89%, the viability, T/C [16] was 84.5% and the viability, T/C (second compound 10 µM, first compound 0.000316 µM) was 97.8%. For the same compound, the viability, T/C (second compound 10 µM, first compound 0.001 µM) was 96.1%, the viability, T/C [17] was 108% and the viability, T/C [18] was 94.4%. For the same compound, the viability, T/C [19] was 90.2% and the viability, T/C [20] was 87.7%.

For `NS(=O)(=O)OCC1CC(n2ccc3c(NC4CCc5ccccc54)ncnc32)CC1O` (stereo not given) + NC1CC1c1ccc(-c2cccc(O)c2)cc1, the IC50 (second compound 0.1 µM) was 0.0661 µM, the IC50 (second compound 0.316 µM) was 0.0629 µM and the IC50 (second compound 1 µM) was 0.0528 µM. For the same compound, the IC50 (second compound 3.16 µM) was 0.0543 µM, the IC50 (second compound 10 µM) was 0.0408 µM and the viability, T/C [21] was 96.4%. It also gave a viability, T/C [22] of 72.8%, a viability, T/C [23] of 38.5% and a viability, T/C [24] of 22.4%. It also gave a viability, T/C [25] of 16.1%, a viability, T/C [26] of 11% and a viability, T/C [27] of 117%. The viability, T/C [28] was 71.1%, the viability, T/C [29] was 38.3% and the viability, T/C [30] was 21.7%. It also gave a viability, T/C [31] of 17.4%, a viability, T/C [32] of 12.3% and a viability, T/C [33] of 111%. The viability, T/C [34] was 62.5%, the viability, T/C [35] was 37.6% and the viability, T/C [36] was 21.2%. The viability, T/C [37] was 16.7%, the viability, T/C [38] was 11.5% and the viability, T/C [39] was 120%. For the same compound, the viability, T/C [40] was 63.6%, the viability, T/C [41] was 38.1% and the viability, T/C [42] was 21.3%. The viability, T/C [43] was 17.7%, the viability, T/C [44] was 14.1% and the viability, T/C [45] was 83.7%. It also gave a viability, T/C [46] of 54.5%, a viability, T/C [47] of 37.5% and a viability, T/C [48] of 23.9%. The viability, T/C [49] was 21% and the viability, T/C [50] was 16%.

Compound `O=C(C=Cc1cccc(S(=O)(=O)Nc2ccccc2)c1)NO` + NC1CC1c1ccc(-c2cccc(O)c2)cc1 has an IC50 (second compound 0.1 µM) of 0.459 µM, an IC50 (second compound 0.316 µM) of 0.438 µM and an IC50 (second compound 1 µM) of 0.446 µM. It also gave an IC50 (second compound 3.16 µM) of 0.347 µM, an IC50 (second compound 10 µM) of 0.356 µM and a viability, T/C [21] of 103%. It also gave a viability, T/C [22] of 113%, a viability, T/C [23] of 82.4% and a viability, T/C [24] of 62.8%. For the same compound, the viability, T/C [25] was 30.1%, the viability, T/C [26] was 0.42% and the viability, T/C [27] was 94.1%. The viability, T/C [28] was 102%, the viability, T/C [29] was 91.1% and the viability, T/C [30] was 61.8%. The viability, T/C [31] was 23.8%, the viability, T/C [32] was 0.53% and the viability, T/C [33] was 97.7%. It also gave a viability, T/C [34] of 107%, a viability, T/C [35] of 87.8% and a viability, T/C [36] of 65.8%. It also gave a viability, T/C [37] of 22.1%, a viability, T/C [38] of 1.1% and a viability, T/C [39] of 112%. It also gave a viability, T/C [40] of 101%, a viability, T/C [41] of 89.1% and a viability, T/C [42] of 55.5%. The viability, T/C [43] was 17.1%, the viability, T/C [44] was 0.23% and the viability, T/C [45] was 112%. For the same compound, the viability, T/C [46] was 112%, the viability, T/C [47] was 83.7% and the viability, T/C [48] was 61%. It also gave a viability, T/C [49] of 14.7% and a viability, T/C [50] of 0.31%.
